The results in this text go back to patent publication US8569292B2, “Cyclic inhibitors of 11β-hydroxysteroid dehydrogenase 1” (Vitae Pharmaceuticals, Inc., priority 2008, dated 2013).

SMILES strings stand for the structures. Some results are limits rather than exact numbers.

In one test the target is CYP3A4 (Homo sapiens, UniProt P08684). Kind of test: Biological Test Example 6: CYP3A4 inhibition (erythromycin N-demethylation). It counts as in vitro ADME.
The target of test [1] is T1, 11β-HSD1 (Homo sapiens, UniProt P28845). The test is described as follows: biochemical. As to conditions: for inhibition at 0.1 µM: read-out: Average % inhibition at 100 nM.
T1 sequence (P28845 whole entry): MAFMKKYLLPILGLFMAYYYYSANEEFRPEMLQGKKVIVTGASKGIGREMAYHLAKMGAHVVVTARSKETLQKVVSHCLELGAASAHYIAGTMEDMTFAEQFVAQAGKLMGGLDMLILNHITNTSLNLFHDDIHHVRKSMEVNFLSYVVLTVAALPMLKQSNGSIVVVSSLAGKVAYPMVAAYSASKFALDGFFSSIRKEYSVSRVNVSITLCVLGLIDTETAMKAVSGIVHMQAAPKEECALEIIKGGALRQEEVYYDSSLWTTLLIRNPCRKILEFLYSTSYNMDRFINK
Test [2] has as its target T1, 11β-HSD1. The test is described as follows: Biological Test Example 4: microsomal 11β-HSD1 in the presence of 50% human plasma. As to conditions: for Shift: IC50 in Test Example 4 divided by IC50 in Test Example 1.
Test [3] has as its target T2, CYP2C9 (Homo sapiens, UniProt P11712).
T2 construct: purchased Invitrogen 2859; host or cells: insect cells infected with baculovirus (microsomes)
Kind of test: Biological Test Example 9: CYP2C9 inhibition (Invitrogen kit, fluorogenic OOMR). Type of test: in vitro ADME.

The target of test [4] is T2, CYP2C9. Kind of test: Biological Test Example 7: CYP2C9 inhibition (naproxen O-demethylation). It counts as in vitro ADME.
Setting [5] is: Biological Test Example 1 IC50 (nM).
The mark [6] stands for this setting: IC50 Range, Biological Test Example 1.

Sequence of CYP3A4 (P08684 whole entry): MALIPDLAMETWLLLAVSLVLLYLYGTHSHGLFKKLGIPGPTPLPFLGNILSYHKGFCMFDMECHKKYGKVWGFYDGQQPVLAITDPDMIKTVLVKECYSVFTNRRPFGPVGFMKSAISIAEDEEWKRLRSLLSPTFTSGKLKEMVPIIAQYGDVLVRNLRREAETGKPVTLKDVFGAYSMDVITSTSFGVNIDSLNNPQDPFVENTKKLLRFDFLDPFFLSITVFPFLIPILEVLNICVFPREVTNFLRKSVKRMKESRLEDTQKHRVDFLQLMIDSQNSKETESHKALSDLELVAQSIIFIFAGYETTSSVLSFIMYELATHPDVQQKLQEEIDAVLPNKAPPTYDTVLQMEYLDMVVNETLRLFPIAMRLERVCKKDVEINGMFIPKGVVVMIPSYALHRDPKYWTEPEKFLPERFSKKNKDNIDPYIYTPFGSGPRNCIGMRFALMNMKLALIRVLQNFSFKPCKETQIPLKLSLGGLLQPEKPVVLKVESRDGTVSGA
T2 sequence (P11712 whole entry): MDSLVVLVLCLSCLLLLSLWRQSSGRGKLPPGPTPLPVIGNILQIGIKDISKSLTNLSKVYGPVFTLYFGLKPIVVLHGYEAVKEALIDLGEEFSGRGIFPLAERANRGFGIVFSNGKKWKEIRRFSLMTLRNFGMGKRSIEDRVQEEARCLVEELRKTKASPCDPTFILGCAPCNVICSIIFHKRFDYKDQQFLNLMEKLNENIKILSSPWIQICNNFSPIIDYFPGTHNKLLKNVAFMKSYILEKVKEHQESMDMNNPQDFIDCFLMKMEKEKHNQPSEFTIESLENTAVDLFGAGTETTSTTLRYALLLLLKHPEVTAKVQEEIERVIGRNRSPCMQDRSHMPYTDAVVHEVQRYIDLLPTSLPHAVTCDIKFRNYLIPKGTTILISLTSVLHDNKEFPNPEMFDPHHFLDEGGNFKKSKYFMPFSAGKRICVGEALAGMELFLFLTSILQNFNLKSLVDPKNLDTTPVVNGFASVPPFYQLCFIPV

A word on the IC50: it is the point on the concentration scale where inhibition reaches its midpoint. Usually inhibition stands for the relative decrease from the control value, in per cent. With `Cc1cc(-c2ccc([C@H](C)N3CC[C@](CCC(N)=O)(c4ccc(F)cc4)OC3=O)cc2)ccn1` [EXAMPLE 78, 3-((R)-6-(4-fluorophenyl)-3-((S)-1-(4-(2-methylpyridin-4-yl)phenyl)ethyl)-2-oxo-1,3-oxazinan-6-yl)propanamide], the IC50 at CYP3A4 is 7300 nM; at 11β-HSD1 [1] (setting [5]) it was 1.8 nM; against 11β-HSD1 [1] (setting [6]), < 100 nM; on 11β-HSD1 [2], 19.8 nM. In addition, the inhibition at 0.1 µM at 11β-HSD1 [1] was 95.8%.
The compound `C[C@@H](c1ccc(-c2cccnc2)cc1)N1CC[C@](CCO)(c2ccccc2)OC1=O` [EXAMPLE 34, (S)-6-(2-hydroxyethyl)-6-phenyl-3-((S)-1-(4-(pyridin-3-yl)phenyl)ethyl)-1,3-oxazinan-2-one] gave an IC50 at CYP2C9 [3] of 5100 nM.
Turning to `C[C@@H](c1ccc(-c2ccc[n+]([O-])c2)cc1)N1CC[C@](CCCO)(c2ccccc2)OC1=O` [EXAMPLE 38, 3-(4-((S)-1-((R)-6-(3-hydroxypropyl)-2-oxo-6-phenyl-1,3-oxazinan-3-yl)ethyl)phenyl)pyridine 1-oxide], on CYP2C9 [3], the IC50 is > 30000 nM.
Still for that read-out and setting: the value for `C[C@@H](c1ccc(-c2ccc(N)nc2)cc1)N1CC[C@](CCCO)(c2ccccc2)OC1=O` [EXAMPLE 95, (R)-3-((S)-1-(4-(6-aminopyridin-3-yl)phenyl)ethyl)-6-(3-hydroxypropyl)-6-phenyl-1,3-oxazinan-2-one] was 2400 nM.
Turning to `Cc1cc(-c2ccc([C@H](C)N3CC[C@](CCC(N)=O)(c4ccccc4)OC3=O)cc2)ccn1` [EXAMPLE 98, 3-((R)-3-((S)-1-(4-(2-methylpyridin-4-yl)phenyl)ethyl)-2-oxo-6-phenyl-1,3-oxazinan-6-yl)propanamide], the IC50 was 42200 nM against CYP3A4, 1.4 nM at 11β-HSD1 [1] (setting [5]), < 100 nM at 11β-HSD1 [1] (setting [6]) and 6.3 nM on 11β-HSD1 [2]. The inhibition at 0.1 µM at 11β-HSD1 [1] came to 97.8%.
In the case of `C[C@@H](c1ccc(-c2ccncc2)cc1)N1CC[C@](CCCO)(c2ccccc2)OC1=O` [EXAMPLE 35, (R)-6-(3-hydroxypropyl)-6-phenyl-3-((S)-1-(4-(pyridin-4-yl)phenyl)ethyl)-1,3-oxazinan-2-one], the IC50 on CYP2C9 [3] was 2200 nM.
Regarding `Cc1cc(-c2ccc([C@H](C)N3CC[C@](CCCN4CCCS4(=O)=O)(c4ccccc4)OC3=O)cc2)ccn1` [EXAMPLE 106, (R)-6-(3-(1,1-dioxo-isothiazolidin-2-yl)propyl)-3-((S)-1-(4-(2-methylpyridin-4-yl)phenyl)ethyl)-6-phenyl-1,3-oxazinan-2-one], the IC50 was 9500 nM on CYP2C9 [3], 22.7 nM against 11β-HSD1 [1] (setting [5]) and < 100 nM against 11β-HSD1 [1] (setting [6]). Besides, the inhibition at 0.1 µM at 11β-HSD1 [1] stood at 79.6%.
In the case of `C[C@@H](c1ccc(-c2cncc(F)c2)cc1)N1CC[C@](CCCO)(c2ccccc2)OC1=O` [EXAMPLE 49, (R)-3-((S)-1-(4-(5-fluoropyridin-3-yl)phenyl)ethyl)-6-(3-hydroxypropyl)-6-phenyl-1,3-oxazinan-2-one], on CYP2C9 [3], 8400 nM corresponded to half-maximal inhibition (IC50).
Still for that read-out and setting: the value for `Cc1cc(-c2ccc([C@H](C)N3CC[C@](CCCO)(c4ccccc4)OC3=O)cc2)cc(C)n1` [EXAMPLE 133, (R)-3-((S)-1-(4-(2,6-dimethylpyridin-4-yl)phenyl)ethyl)-6-(3-hydroxypropyl)-6-phenyl-1,3-oxazinan-2-one] was > 30000 nM.
Take `C[C@@H](c1ccc(-c2ccc(F)cn2)cc1)N1CC[C@](CCCO)(c2ccccc2)OC1=O` [EXAMPLE 112, (R)-3-((S)-1-(4-(5-fluoropyridin-2-yl)phenyl)ethyl)-6-(3-hydroxpropyl)-6-Phenyl-1,3-oxazinan-2-one]: the results for the IC50 against CYP2C9 [3], against 11β-HSD1 [1] (setting [5]) and at 11β-HSD1 [1] (setting [6]) were 6100 nM, 0.5 nM and < 100 nM, respectively. In addition, the inhibition at 0.1 µM at 11β-HSD1 [1] was found to be 95.2%.
For the compound `Cc1nnc(CC[C@]2(c3ccccc3)CCN([C@@H](C)c3ccc(-c4ccc(C#N)cn4)cc3)C(=O)O2)o1` [EXAMPLE 145, 6-(4-((S)-1-((R)-6-(2-(5-methyl-1,3,4-oxadiazol-2-yl)ethyl)-2-oxo-6-phenyl-1,3-oxazinan-3-yl)ethyl)phenyl)nicotinonitrile], the IC50 against CYP2C9 [3] was > 30000 nM; against 11β-HSD1 [1] (setting [5]), 32.8 nM; against 11β-HSD1 [1] (setting [6]) it was < 100 nM. Moreover, the inhibition at 0.1 µM on 11β-HSD1 [1] turned out to be 72.4%.
On to `Cc1ccc(-c2ccc([C@H](C)N3CC[C@](CCc4nnc(C)o4)(c4ccccc4)OC3=O)cc2)nn1` [EXAMPLE 12, (R)-6-(2-(5-methyl-1,3,4-oxadiazol-2-yl)ethyl)-3-((S)-1-(4-(6-methylpyridazin-3-yl)phenyl)ethyl)-6-phenyl-1,3-oxazinan-2-one], for which, on CYP2C9 [3], the IC50 is 4000 nM.
Same read-out and setting: for `Cc1ncc(-c2ccc([C@H](C)N3CC[C@](CCCO)(c4ccc(F)cc4)OC3=O)cc2)cn1` [EXAMPLE 137, (R)-6-(4-fluorophenyl)-6-(3-hydroxypropyl)-3-((S)-1-(4-(2-methylpyrimidin-5-yl)phenyl)ethyl)-1,3-oxazinan-2-one] the value was 18400 nM.
For the compound `Cc1nc(-c2ccc([C@H](C)N3CC[C@](CC(C)(C)O)(c4ccccc4)OC3=O)cc2)ccc1C#N` [EXAMPLE 1, 6-(4-((S)-1-((S)-6-(2-hydroxy-2-methylpropyl)-2-oxo-6-phenyl-1,3-oxazinan-3-yl)ethyl)phenyl)-2-methylnicotinonitrile], the IC50 on CYP3A4 was 16700 nM; on CYP2C9 [4], 12900 nM; against 11β-HSD1 [1] (setting [5]) it was 0.7 nM; against 11β-HSD1 [1] (setting [6]), < 100 nM; on 11β-HSD1 [2] it was 7.3 nM. Moreover, the inhibition at 0.1 µM at 11β-HSD1 [1] turned out to be 96.4%.
`C[C@@H](c1ccc(-c2cccnc2)cc1)N1CC[C@](CCNS(C)(=O)=O)(c2ccccc2)OC1=O` [EXAMPLE 55, N-(2-((S)-2-oxo-6-phenyl-3-((S)-1-(4-(pyridin-3-yl)phenyl)ethyl)-1,3-oxazinan-6-yl)ethyl)methanesulfonamide] registered an IC50 at CYP2C9 [3] of 14100 nM. In addition, on 11β-HSD1 [1], the inhibition at 0.1 µM is 96.5%.
On CYP2C9 [3], `C[C@@H](c1ccc(-c2cccnc2)cc1)N1CC[C@](CCCO)(c2ccccc2)OC1=O` [EXAMPLE 36, (R)-6-(3-hydroxypropyl)-6-phenyl-3-((S)-1-(4-(pyridin-3-yl)phenyl)ethyl)-1,3-oxazinan-2-one] displayed an IC50 of 5200 nM.
In the case of `Cc1cc(-c2ccc([C@H](C)N3CC[C@](CCN4CCCS4(=O)=O)(c4ccccc4)OC3=O)cc2)ccn1` [EXAMPLE 105, (S)-6-(2-(1,1-dioxo-isothiazolidin-2-yl)ethyl)-3-((S)-1-(4-(2-methylpyridin-4-yl)phenyl)ethyl)-6-phenyl-1,3-oxazinan-2-one], the IC50 was 2500 nM against CYP2C9 [3], 19.2 nM against 11β-HSD1 [1] (setting [5]) and < 100 nM against 11β-HSD1 [1] (setting [6]). Besides, the inhibition at 0.1 µM at 11β-HSD1 [1] came out at 86.3%.
The compound `COc1ccc(-c2ccc([C@H](C)N3CC[C@](CCCO)(c4ccccc4)OC3=O)cc2)cn1` [EXAMPLE 40, (R)-6-(3-hydroxypropyl)-3-((S)-1-(4-(6-methoxypyridin-3-yl)phenyl)ethyl)-6-phenyl-1,3-oxazinan-2-one] had an IC50 at CYP2C9 [3] of 10000 nM.
For the compound `Cc1cc(-c2ccc([C@H](C)N3CC[C@](CCCN(C)S(C)(=O)=O)(c4ccccc4)OC3=O)cc2)ccn1` [EXAMPLE 119, N-methyl-N-(3-((R)-3-((S)-1-(4-(2-methylpyridin-4-yl)phenyl)ethyl)-2-oxo-6-phenyl-1,3-oxazinan-6-yl)propyl)methanesulfonamide], the IC50 is 2 nM on 11β-HSD1 [1] (setting [5]), < 100 nM at 11β-HSD1 [1] (setting [6]) and 29.7 nM on 11β-HSD1 [2]. For the same compound, the inhibition at 0.1 µM at 11β-HSD1 [1] was determined as 90.8%. Also, the Shift at 11β-HSD1 [2] stood at 15.1.
Regarding `C=CC[C@]1(c2ccc(F)cc2)CCN([C@@H](C)c2ccc(-c3sc(C)nc3C)cc2)C(=O)O1` [EXAMPLE 42, (R)-6-allyl-3-((S)-1-(4-(2,4-dimethylthiazol-5-yl)phenyl)ethyl)-6-(4-fluorophenyl)-1,3-oxazinan-2-one], the IC50 against 11β-HSD1 [1] (setting [5]) is 1 nM; at 11β-HSD1 [1] (setting [6]) it was < 100 nM; on 11β-HSD1 [2], 34.3 nM. Also, the inhibition at 0.1 µM at 11β-HSD1 [1] was 90.9%. The Shift on 11β-HSD1 [2] was 33.4.
With `C[C@@H](c1ccc(-c2cnc(C(C)(C)O)nc2)cc1)N1CC[C@](CC(C)(C)O)(c2ccccc2)OC1=O` [EXAMPLE 31, (S)-6-(2-hydroxy-2-methylpropyl)-3-((S)-1-(4-(2-(2-hydroxypropan-2-yl)pyrimidin-5-yl)phenyl)ethyl)-6-phenyl-1,3-oxazinan-2-one], the results for the IC50 on 11β-HSD1 [1] (setting [5]), against 11β-HSD1 [1] (setting [6]) and at 11β-HSD1 [2] were 4.8 nM, < 100 nM and 9.3 nM, respectively. For the same compound, at 11β-HSD1 [1], the inhibition at 0.1 µM was found to be 90.7%. Further, the Shift at 11β-HSD1 [2] came out at 1.9.
For `COc1ccc(-c2ccc([C@H](C)N3CC[C@](CCC(N)=O)(c4ccc(F)cc4)OC3=O)cc2)cn1` [EXAMPLE 66, 3-((R)-6-(4-fluorophenyl)-3-((S)-1-(4-(6-methoxypyridin-3-yl)phenyl)ethyl)-2-oxo-1,3-oxazinan-6-yl)propanamide], the half-maximal inhibitory concentration (IC50) against 11β-HSD1 [1] (setting [5]) was 1.3 nM; at 11β-HSD1 [1] (setting [6]), < 100 nM; on 11β-HSD1 [2] it was 9.7 nM. Further, the inhibition at 0.1 µM on 11β-HSD1 [1] turned out to be 95.6%.
With `CC[C@@H](c1ccc(-c2cc(C)[n+]([O-])c(C)c2)cc1)N1CC[C@](CC(C)(C)O)(c2ccccc2)OC1=O` [EXAMPLE 154, 4-(4-((S)-1-((S)-6-(2-hydroxy-2-methylpropyl)-2-oxo-6-phenyl-1,3-oxazinan-3-yl)propyl)phenyl)-2,6-dimethylpyridine 1-oxide], the IC50 against 11β-HSD1 [1] (setting [5]) is 3.5 nM; at 11β-HSD1 [1] (setting [6]), < 100 nM; at 11β-HSD1 [2], 13.2 nM. The inhibition at 0.1 µM on 11β-HSD1 [1] was determined as 90.7%. In addition, the Shift on 11β-HSD1 [2] came out at 3.8.
As to `Cc1nnc(CC[C@]2(c3ccccc3)CCN([C@@H](C)c3ccc(-c4ccc(C#N)cn4)cc3)C(=O)O2)s1` [EXAMPLE 146, 6-(4-((S)-1-((R)-6-(2-(5-methyl-1,3,4-thiadiazol-2-yl)ethyl)-2-oxo-6-phenyl-1,3-oxazinan-3-yl)ethyl)phenyl)nicotinonitrile], the values for the IC50 at CYP2C9 [3], against 11β-HSD1 [1] (setting [5]) and against 11β-HSD1 [1] (setting [6]) were 6100 nM, 17.4 nM and < 100 nM, respectively. Besides, the inhibition at 0.1 µM on 11β-HSD1 [1] was 78.9%.
